Test system: HES1 (YOR237W) transcript in wild type yeast LPY9
Test: Yeast transcript profiling by array hybridization after ketoconazole treatment
Type: cell-based, Saccharomyces cerevisiae
Settings: yeast LPY9, array of yeast ORF sequences; SEQ ID NO: 5
Experimental: The yeast strain LPY9 (MATa, leu2, Ura3, his3) is grown overnight and inoculated into SD+ hul (histidine, uracil, leucine) media. Aliquots of the culture are treated with ketoconazole (an inhibitor of C-14α demethylase (P45014DM) enzyme) at 10 ug/ml, 50 ug/ml, and […], respectively. A sample of each is collected at 2, 4, and 6 hours after treatment. Control samples treated with DMSO (dimethyl sulfoxide-solvent for ketoconazole) but not with ketoconazole are also collected. Total RNA from each sample is collected by conventional methods, such as a Zirconium/Silica bead binding and extraction method. The sequence content of each sample is analyzed and compared by hybridizing each of them to a number of yeast ORF sequences immobilized on a Nylon membrane in an array format.
Using this method, over 600 RNA transcripts levels are shown to be altered.

## CC(=O)N1CCN(c2ccc(OCC3COC(Cn4ccnc4)(c4ccc(Cl)cc4Cl)O3)cc2)CC1 (stereo not shown) [ketoconazole]
  Effect of ketoconazole addition on yeast HES1 transcript level: particularly effected
